In patent US20260224542A1, “PHARMACEUTICAL COMPOSITION CONTAINING ß-LACTAMASE INHIBITOR AND USE THEREOF” (priority 2023, published 2026):
In brackets after ≈: the same amount, converted by molar mass.

Tests used:
[1] = test system: Acinetobacter baumannii AR0274; assay: Neutropenic mouse thigh infection, imipenem + Compound 1 dose ratios (Example 3); type: in vivo; settings: Compound 1 total 96 mg/kg IV; 9 h after inoculation
Protocol: (§1) The overnight cultures are washed twice with phosphate buffer solution (PBS) and adjusted to the optimal concentration in PBS.
(§2) For intravenous (IV) administration, the solution of Compound 1 is prepared using a Captisol vehicle, which is 25 mM acetate buffer (prepared with sodium acetate trihydrate) containing 10% w/v Captisol. The pH is adjusted to 5.0 with 2N acetic acid solution. A desired volume of buffer is added to the weighed sample, the desired concentration of Compound 1 is prepared in the buffer, which is then ultrasonically heated in a water bath until a clear solution was obtained. The administrated volume of Compound 1 is 5 mL/kg.
(§3) For subcutaneous (SC) administration, an imipenem solution or imipenem-cilastatin solution is prepared in sterile PBS by using imipenem monohydrate or imipenem monohydrate and cilastatin sodium. The desired concentration of imipenem is prepared by adding PBS to the solid powder, then sonicating the mixture in a water bath until a clear solution is obtained, and the administrated volume is 10 mL/kg.
(§4) The mice were divided into 16 groups, with 5 mice in each group. […]
(§5) For the […] Group 1 (control group) above, animals were euthanized with an overdose of sodium pentobarbital 1 hour after inoculation. As described above, bilateral thighs were dissected and quantitatively cultured for use as final samples.

[2] = test system: Pseudomonas aeruginosa ACC00680; assay: Neutropenic mouse thigh infection, imipenem + cilastatin + Compound 1 dose ratios (Example 2); type: in vivo; settings: Compound 1 total 96 mg/kg IV; 9 h after inoculation
Protocol: as §1, §2, §3, §4, §5

[3] = Solubility of Compound 1 incubated for 24 h at 25° C. (Example 6); type: physicochemical
Protocol: The solubilization effect of sodium sulfobutylether-β-cyclodextrin (SBECD) and hydroxypropyl-β-cyclodextrin (HP-β-CD) on Compound 1 was investigated by taking the solubility in 50 mM pH 4.5 acetate buffer medium and water as a reference.
In the art, surfactants may also be used for solubilization. To further improve the solubility of Compound 1, a surfactant was added on the basis of SBECD to investigate the solubility.

[4] = test system: Pseudomonas aeruginosa ACC00680; assay: Neutropenic mouse thigh infection, imipenem + Compound 1 dose ratios (Example 1); type: in vivo; settings: 9 h after inoculation
Protocol: as §1, §2, §3
The mice were divided into 15 groups, with 5 mice in each group. The test was carried out following the above steps, the concentration of the bacterial solution of Pseudomonas aeruginosa ACC00680 was 1.83×10^5 colony forming unit (CFU) per gram of thigh tissues, and the administration was conducted according to the scheme in the table below.
For Groups 2 to 15 above, animals were euthanized 9 hours after inoculation using an overdose of sodium pentobarbital, followed by confirmation of death by cervical dislocation.
as §5

[5] = test system: Klebsiella pneumoniae AR0113; assay: Neutropenic mouse thigh infection, imipenem + Compound 1 dose ratios (Example 4); type: in vivo; settings: Compound 1 total 96 mg/kg; 9 h after inoculation
Protocol: as §1, §2, §3, §4, §5

Structure (SMILES): N=C1NC[C@@H](c2nnc([C@@H]3CC4(CC4)[C@@H]4CN3C(=O)N4OS(=O)(=O)O)o2)N1 [Compound 1]
- Group geometric mean (CFU/g) [1]: 1.89 × 10^7 CFU/g
- Group geometric mean (CFU/g) [2]: 3.21 × 10^7 CFU/g
- effect of surfactant added on the basis of SBECD on solubility ([3]; SBECD 10% plus surfactant): failed to significantly improve the solubility
- solubility ([3]; water, background statement, conditions not stated): 600 µg/mL (≈ 1500 µM)
- Group geometric mean (CFU/g) ([4]; Compound 1 total 50 mg/kg IV): 4.63 × 10^5 CFU/g
- Group geometric mean (CFU/g) ([4]; Compound 1 total 75 mg/kg IV): 1.93 × 10^6 CFU/g
- Group geometric mean (CFU/g) ([4]; Compound 1 total 100 mg/kg IV): 4.52 × 10^6 CFU/g
- Group geometric mean (CFU/g) [5]: 2.06 × 10^7 CFU/g
